Legend:
[1] = system: MV4-11 (human biphenotypic B myelomonocytic leukaemia); test: Antiproliferative MTT assay, 72 h exposure; format: cell-based; conditions: Homo sapiens, MV4-11, mean ± SD of 3–5 independent experiments
Protocol: (§1) The biological studies were performed in vitro using human cancer cell lines: MV4-11 (human biphenotypic B myelomonocytic leukaemia), A-549 (non-small cell lung cancer), MCF-7 (breast cancer), LoVo (colon cancer), LoVo/DX (colon cancer drug resistant), HepG2 (liver cancer) and BALB/3T3 (normal mice fibroblasts). These lines were obtained from American Type Culture Collection (Rockville, Maryland, U.S.A.). The cell line is being maintained in the Institute of Immunology and Experimental Therapy, Wroclaw, Poland. All cell lines were grown at 37°C with 5% CO2 humidified atmosphere and were cultured in cultured medium according to the method described before.
(§2) Prior to usage, the compounds were dissolved in DMSO or in mixture of 99.8% ethanol and DMSO (1:1) to the concentration of 25 or 50 mM, and subsequently diluted in culture medium to reach the required concentrations (ranging from 5 to 625 μM).
(§3) Twenty-four hours prior to the addition of tested compounds, the cells were plated in 96-well plates (Sarstedt, Germany) at a density of 1 × 10^4 cells per well in 100 μL of culture medium. The assay was performed after 72 h of exposure to varying concentrations of the tested agents. The in vitro cytotoxic effect of tested agents was examined using the MTT (for MV4-11 cells) or SRB assay which were described previously. Each compound in each concentration was tested in triplicate in a single experiment, which was repeated 3–5 times.
(§4) The results of antiproliferative activity were given as IC50 values. Using this parameter we calculated also the resistance indexes (RI) dividing the IC50 values of selected compounds estimated for drug resistant cell LOVO/DX line by respective values designated for drug sensitive LoVo line. According to Harker et al. three categories of the cells could be distinguished: (a) the cells are drug-sensitive—if the ratio approaches 0–2; (b) the cells are moderately drug-resistant—if the ratio ranges from 2 to 10; (c) the cells are markedly drug-resistant—if the ratio is higher than 10.

[2] = system: A-549 (non-small cell lung cancer); test: Antiproliferative SRB assay, 72 h exposure; format: cell-based, human; conditions: Homo sapiens, A549, mean ± SD of 3–5 experiments, n.a. = no activity in concentration of 5, 25, 125, 625 μM
Protocol: as §1, §2, §3, §4

HepG2 (liver cancer) = test: Antiproliferative SRB assay, 72 h exposure; format: cell-based, human; conditions: Homo sapiens, HepG2, mean ± SD of 3–5 experiments, n.a. = no activity in concentration of 5, 25, 125, 625 μM
Protocol: as §1, §2, §3, §4

LoVo (colon cancer) = test: Antiproliferative SRB assay, 72 h exposure; format: cell-based, human; conditions: Homo sapiens, LoVo; SRB, 72 h; mean ± SD of 3–5 experiments; n.a. = no activity in concentration of 5, 25, 125, 625 μM
Protocol: as §1, §2, §3, §4

[3] = system: LoVo/DX (colon cancer drug resistant); test: Antiproliferative SRB assay, 72 h exposure; format: cell-based, human; conditions: Homo sapiens, LoVo/DX, mean ± SD of 3–5 experiments, n.a. = no activity in concentration of 5, 25, 125, 625 μM
Protocol: as §1, §2, §3, §4

MCF-7 (breast cancer) = test: Antiproliferative SRB assay, 72 h exposure; format: cell-based, human; conditions: Homo sapiens, MCF7, mean ± SD of 3–5 experiments, n.a. = no activity in concentration of 5, 25, 125, 625 μM
Protocol: as §1, §2, §3, §4

[4] = system: BALB/3T3 (normal mice fibroblasts); test: Antiproliferative SRB assay, 72 h exposure; format: cell-based; conditions: Mus musculus, BALB/3T3, mean ± SD of 3–5 experiments, n.a. = no activity in concentration of 5, 25, 125, 625 μM
Protocol: as §1, §2, §3, §4

[5] = system: drug resistant LOVO/DX line vs drug sensitive LoVo line; test: Resistance index (RI): IC50 LOVO/DX divided by IC50 LoVo; format: cell-based, human; conditions: RI = IC50 resistant line / IC50 non-resistant line; 0<RI<2 able to overcome drug resistance; 2<RI<10 moderate ability; RI>10 no influence
Text: as §4

Structure (SMILES) | IC50 [1] [µM] | IC50 [2] [µM] | IC50 (HepG2 (liver cancer)) [µM] | IC50 (LoVo (colon cancer)) [µM] | IC50 [3] [µM] | IC50 (MCF-7 (breast cancer)) [µM] | IC50 [4] [µM] | Resistance index (RI) [5]
CCCCCCCCCCCCCCCC(=O)O [Palmitic acid, reference compound] | 161 ± 78.9 | 56.4 ± 1.6 | 275 ± 85.2 | 42.1 ± 4.6 | 86.3 ± 21.3 | 123 ± 63.4 | 60.4 ± 4 | 
C=CC(C)(CCC=C(C)C)CC(=O)OC[C@H](COP(=O)([O-])OCC[N+](C)(C)C)OC(=O)CC(C)(C=C)CCC=C(C)C (stereo partly shown) [Compound 6a] | 50.1 ± 3.5 | 263 ± 19.7 | 286.4 ± 1.3 | 230 ± 6.9 | 245 ± 19.7 | 209 ± 12.9 | 280 ± 8.2 | 
CCC/C=C1/C(C)(C)CCCC1(C)CC(=O)OC[C@@H](O)COP(=O)([O-])OCC[N+](C)(C)C (stereo partly drawn) [Compound 8c, (2’R)-1’-{2-[(3R,2"E)-2"-butylidene-1",3",3"-trimethyl]cyclohexyl}acetyl-2’-hydroxy-sn-glycero-3’-phospocholine + (2’R)-1’-{2-[(3S,2"E)-2"-butylidene-1",3",3"-trimethyl]cyclohexyl}acetyl-2’-hydroxy-sn-glycero-3’-phospocholine] | 203 ± 15 |  |  | 284 ± 9.7 | 382 ± 32.4 | 470 ± 52.9 |  | 1.23
C=CC(C)(CCCC(C)CCCC(C)CCCC(C)C)CC(=O)OC[C@H](COP(=O)([O-])OCC[N+](C)(C)C)OC(=O)CC(C)(C=C)CCCC(C)CCCC(C)CCCC(C)C (stereo partly shown) [Compound 6d] | 42.4 ± 9.52 |  |  |  |  |  |  | 
C=CC(C)(CCCC(C)CCCC(C)CCCC(C)C)CC(=O)O (stereo not shown) [4 (PHYTA), 3,7,11,15-Tetramethyl-3-vinylhexadecanoic acid] | 39.3 ± 5.85 |  |  |  |  |  |  | 
C=CC(C)(CCC=C(C)C)CC(=O)OC[C@@H](O)COP(=O)([O-])OCC[N+](C)(C)C (stereo partly shown) [Compound 8a] | 269 ± 18 |  |  | 245 ± 68.5 | 469 ± 3.2 | 372 ± 28.1 |  | 1.61
COc1cccc2c1C(=O)c1c(O)c3c(c(O)c1C2=O)C[C@@](O)(C(=O)CO)C[C@@H]3O[C@H]1C[C@H](N)[C@H](O)[C@H](C)O1 [Doxorubicin, doxorubicin, reference compound] |  |  |  |  |  |  |  | 55.81
CCC/C=C1/C(C)(C)CCCC1(C)CC(=O)OC[C@H](COP(=O)([O-])OCC[N+](C)(C)C)OC(=O)CCCCCCCCCCCCCCC (stereo partly drawn) [Compound 9c, (2’R)-1’-{2-[(3R,2"E)-2"-butylidene-1",3",3"-trimethyl]cyclohexyl}acetyl-2’-palmitoyl-sn-glycero-3’-phospocholine + (2’R)-1’-{2-[(3S,2"E)-2"-butylidene-1",3",3"-trimethyl]cyclohexyl}acetyl-2’-palmitoyl-sn-glycero-3’-phospocholine] | 50 ± 9 | 68.3 ± 1.5 | 303 ± 77.6 | 61.5 ± 4.84 | 75.5 ± 8.1 | 102 ± 11.2 | 292 ± 41.5 | 
CCC/C=C1/C(C)(C)CCCC1(C)CC(=O)OC[C@H](COP(=O)([O-])OCC[N+](C)(C)C)OC(=O)CC1(C)CCCC(C)(C)/C1=C/CCC (stereo partly drawn) [Compound 6c, (2’R)-1’,2’-di{2-[(3R,2"E)-2"-butylidene-1",3",3"-trimethyl]cyclohexyl}acetyl-sn-glycero-3’-phospocholine + (2’R)-1’,2’-di{2-[(3S,2"E)-2"-butylidene-1",3",3"-trimethyl]cyclohexyl}acetyl-sn-glycero-3’-phospocholine] | 38.6 ± 11.1 | 52.3 ± 1.9 | 56.7 ± 0.1 | 53.1 ± 3.6 | 56.9 ± 0.2 | 57.8 ± 2.6 | 57.3 ± 0.3 | 
C=CC(C)(CC/C=C(\C)CCC=C(C)C)CC(=O)OC[C@H](COP(=O)([O-])OCC[N+](C)(C)C)OC(=O)CCCCCCCCCCCCCCC (stereo partly shown) [Compound 9b] | 299 ± 39.3 |  |  | 269 ± 29.9 | 537 ± 61.2 | 489 ± 57.7 |  | 
C=CC(C)(CCC=C(C)C)CC(=O)OC[C@H](COP(=O)([O-])OCC[N+](C)(C)C)OC(=O)CCCCCCCCCCCCCCC (stereo partly shown) [Compound 9a] | 31.8 ± 1.62 | 38.3 ± 6.7 | 59.2 ± 4.6 | 32.8 ± 5.1 | 52.7 ± 3.3 | 40 ± 1.9 | 57.6 ± 1 | 

From article PMC5308787, “Isoprenoid-phospholipid conjugates as potential therapeutic agents: Synthesis, characterization and antiproliferative studies” (PLoS ONE, 2017)
